From patent US10947225B2, “Phosphotidylinositol 3-kinase inhibitors” (Emory University, priority 2016, dated 2021)
Like-named read-outs stand apart in the source and are kept apart here.

Assays:
Format in all cases: biochemical
PI3Kα = biological target: T1, PI3Kα (Homo sapiens, UniProt P42336); experiment: Ki for PI3Kα (Promega ADP-Glo Lipid Kinase System)
T1 construct: purchased Promega V1721
Source text: The Promega V1721 ADP-Glo Lipid Kinase System was used as per the Promega technical manual. The analysis was done in triplicate on three 96-well plates. The plates were read and the data were processed with GraphPad Prism 7.0.

p110alpha = p110alpha (Homo sapiens, UniProt P42336); experiment: PI3K kinase assay (ADP-Glo), p110alpha; conditions: final ATP 25 μM
Sequence of p110alpha (P42336 whole entry): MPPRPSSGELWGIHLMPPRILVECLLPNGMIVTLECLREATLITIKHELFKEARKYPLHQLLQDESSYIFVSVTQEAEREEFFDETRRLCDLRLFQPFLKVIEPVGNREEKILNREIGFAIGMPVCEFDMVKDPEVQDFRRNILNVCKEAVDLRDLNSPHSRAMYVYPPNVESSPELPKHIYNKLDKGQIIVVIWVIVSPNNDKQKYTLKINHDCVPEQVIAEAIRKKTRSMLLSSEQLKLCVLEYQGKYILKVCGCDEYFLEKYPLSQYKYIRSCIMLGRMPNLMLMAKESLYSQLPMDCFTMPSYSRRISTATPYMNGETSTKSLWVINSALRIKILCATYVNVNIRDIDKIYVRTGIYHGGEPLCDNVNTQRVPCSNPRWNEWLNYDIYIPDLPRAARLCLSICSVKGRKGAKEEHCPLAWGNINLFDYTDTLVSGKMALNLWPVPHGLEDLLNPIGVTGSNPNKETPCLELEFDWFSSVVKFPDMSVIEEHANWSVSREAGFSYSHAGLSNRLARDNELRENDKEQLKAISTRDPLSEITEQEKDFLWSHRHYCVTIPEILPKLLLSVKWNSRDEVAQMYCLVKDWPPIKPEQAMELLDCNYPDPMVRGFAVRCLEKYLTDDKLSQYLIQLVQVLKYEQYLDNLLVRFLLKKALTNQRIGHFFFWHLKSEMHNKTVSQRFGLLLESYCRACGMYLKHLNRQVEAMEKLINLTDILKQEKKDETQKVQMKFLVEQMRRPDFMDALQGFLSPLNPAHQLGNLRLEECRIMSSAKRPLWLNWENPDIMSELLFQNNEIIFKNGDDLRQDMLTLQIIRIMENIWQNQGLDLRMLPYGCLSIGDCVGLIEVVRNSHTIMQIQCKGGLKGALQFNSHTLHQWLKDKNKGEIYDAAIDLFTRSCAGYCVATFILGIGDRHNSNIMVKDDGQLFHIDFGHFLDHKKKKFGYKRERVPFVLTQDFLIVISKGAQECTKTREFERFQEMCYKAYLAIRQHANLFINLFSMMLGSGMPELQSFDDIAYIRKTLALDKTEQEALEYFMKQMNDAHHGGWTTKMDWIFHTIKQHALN
Sequence of p110alpha (P27986 whole entry partner): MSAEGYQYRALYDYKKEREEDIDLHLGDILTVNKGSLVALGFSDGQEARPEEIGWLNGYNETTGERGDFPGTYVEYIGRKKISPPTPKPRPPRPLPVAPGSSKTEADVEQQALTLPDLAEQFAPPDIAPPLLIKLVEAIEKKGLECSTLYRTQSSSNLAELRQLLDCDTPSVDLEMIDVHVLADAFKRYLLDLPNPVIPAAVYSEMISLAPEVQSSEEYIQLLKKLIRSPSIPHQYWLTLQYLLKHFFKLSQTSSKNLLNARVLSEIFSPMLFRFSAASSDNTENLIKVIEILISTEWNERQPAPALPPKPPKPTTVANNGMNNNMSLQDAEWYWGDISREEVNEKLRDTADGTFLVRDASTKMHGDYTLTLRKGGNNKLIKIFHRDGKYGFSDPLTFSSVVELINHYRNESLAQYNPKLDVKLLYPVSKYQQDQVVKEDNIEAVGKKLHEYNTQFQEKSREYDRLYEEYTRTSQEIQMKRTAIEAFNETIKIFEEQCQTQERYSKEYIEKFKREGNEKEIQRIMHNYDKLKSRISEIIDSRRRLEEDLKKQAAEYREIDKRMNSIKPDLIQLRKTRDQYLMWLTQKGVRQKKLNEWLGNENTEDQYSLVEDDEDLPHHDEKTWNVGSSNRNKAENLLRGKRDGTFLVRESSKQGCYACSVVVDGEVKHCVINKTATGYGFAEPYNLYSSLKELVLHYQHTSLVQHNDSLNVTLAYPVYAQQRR
Procedure: (§1) Summary of PI3K Kinase Assay
Enzyme optimization: After optimization, the following concentrations of Enzyme are used to compound testing: P110alpha 1 μg/ml,
(§2) 1. Prepare 1.25× enzyme/substrate: mix equal volume of 2.5× enzyme (in 2.5× reaction buffer) and 2.5× substrate (final 0.05 mg/ml) (in 2.5× lipid dilution buffer);
(§3) 2. Add 4 μl of 1.25× enzyme/substrate mixture to 384-well low volume white plate;
(§4) 3. Add 0.1 μl of increasing concentrations of compound diluted in DMSO;
(§5) 4. Incubate at r.t. for 30 min;
(§6) 5. Dispense 1 μl of 250 μM ATP diluted in ddH2O. The final ATP was 25 μM;
(§7) 6. Incubate at r.t. for 1 h;
(§8) 7. Add 5 μl of ADP-Glo with 10 mM MgCl2;
(§9) 8. Incubate at r.t. for 40 min;
(§10) 9. Add 10 μl of kinase detection buffer;
(§11) 10. Incubated at r.t. for 30 min; and
(§12) 11. Read luminescence signal using Envision multilabel plate reader.
(§13) The effect of compound on kinase activity is expressed as % of control and calculated as the following equation: % of Control=(Lum compound−Lum blank)/(Lum vehicle control−Lum blank)×100 • * blank is the substrate only without enzyme, which is the background signal control.
(§14) The experiment was repeated twice on different days at triplicates per sample.

p110beta = p110beta (Homo sapiens, UniProt P42338); experiment: PI3K kinase assay (ADP-Glo), p110beta; conditions: final ATP 25 μM
Sequence of p110beta (P42338 whole entry): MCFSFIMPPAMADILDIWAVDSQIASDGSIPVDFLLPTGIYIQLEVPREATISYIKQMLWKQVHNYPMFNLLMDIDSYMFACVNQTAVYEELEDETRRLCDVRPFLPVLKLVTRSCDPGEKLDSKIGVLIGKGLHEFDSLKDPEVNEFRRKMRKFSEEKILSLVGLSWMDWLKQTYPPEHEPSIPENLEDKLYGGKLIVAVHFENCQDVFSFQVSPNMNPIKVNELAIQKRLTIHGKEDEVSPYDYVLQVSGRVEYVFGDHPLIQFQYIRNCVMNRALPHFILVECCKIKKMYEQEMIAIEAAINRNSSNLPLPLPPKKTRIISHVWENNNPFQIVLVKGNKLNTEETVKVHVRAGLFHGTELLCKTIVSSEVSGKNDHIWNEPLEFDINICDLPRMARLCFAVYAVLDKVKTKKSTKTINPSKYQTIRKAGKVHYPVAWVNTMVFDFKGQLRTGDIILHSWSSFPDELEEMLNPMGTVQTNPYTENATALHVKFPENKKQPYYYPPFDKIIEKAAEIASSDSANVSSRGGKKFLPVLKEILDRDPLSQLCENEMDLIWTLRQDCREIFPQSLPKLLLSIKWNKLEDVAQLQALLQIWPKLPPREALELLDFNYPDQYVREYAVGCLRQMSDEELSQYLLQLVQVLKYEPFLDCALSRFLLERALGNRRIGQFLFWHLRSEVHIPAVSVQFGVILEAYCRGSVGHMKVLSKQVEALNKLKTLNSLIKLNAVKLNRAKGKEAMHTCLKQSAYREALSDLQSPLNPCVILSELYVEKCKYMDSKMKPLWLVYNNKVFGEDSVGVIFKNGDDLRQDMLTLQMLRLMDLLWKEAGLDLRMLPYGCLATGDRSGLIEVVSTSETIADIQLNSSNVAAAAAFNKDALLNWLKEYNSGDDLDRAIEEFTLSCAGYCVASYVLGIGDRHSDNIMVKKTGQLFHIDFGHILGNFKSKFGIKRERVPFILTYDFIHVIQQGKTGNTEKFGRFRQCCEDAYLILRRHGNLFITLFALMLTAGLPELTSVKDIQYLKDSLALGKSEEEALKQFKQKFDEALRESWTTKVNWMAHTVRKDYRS
Sequence of p110beta (P27986 whole entry partner): as the sequence (P27986 whole entry partner) above
Procedure: as §1, §2, §3, §4, §5, §6, §7, §8, §9, §10, §11, §12, §13, §14

p120gamma = p120gamma (Homo sapiens, UniProt P48736); experiment: PI3K kinase assay (ADP-Glo), p120gamma; conditions: final ATP 25 μM
Sequence of p120gamma (P48736 whole entry): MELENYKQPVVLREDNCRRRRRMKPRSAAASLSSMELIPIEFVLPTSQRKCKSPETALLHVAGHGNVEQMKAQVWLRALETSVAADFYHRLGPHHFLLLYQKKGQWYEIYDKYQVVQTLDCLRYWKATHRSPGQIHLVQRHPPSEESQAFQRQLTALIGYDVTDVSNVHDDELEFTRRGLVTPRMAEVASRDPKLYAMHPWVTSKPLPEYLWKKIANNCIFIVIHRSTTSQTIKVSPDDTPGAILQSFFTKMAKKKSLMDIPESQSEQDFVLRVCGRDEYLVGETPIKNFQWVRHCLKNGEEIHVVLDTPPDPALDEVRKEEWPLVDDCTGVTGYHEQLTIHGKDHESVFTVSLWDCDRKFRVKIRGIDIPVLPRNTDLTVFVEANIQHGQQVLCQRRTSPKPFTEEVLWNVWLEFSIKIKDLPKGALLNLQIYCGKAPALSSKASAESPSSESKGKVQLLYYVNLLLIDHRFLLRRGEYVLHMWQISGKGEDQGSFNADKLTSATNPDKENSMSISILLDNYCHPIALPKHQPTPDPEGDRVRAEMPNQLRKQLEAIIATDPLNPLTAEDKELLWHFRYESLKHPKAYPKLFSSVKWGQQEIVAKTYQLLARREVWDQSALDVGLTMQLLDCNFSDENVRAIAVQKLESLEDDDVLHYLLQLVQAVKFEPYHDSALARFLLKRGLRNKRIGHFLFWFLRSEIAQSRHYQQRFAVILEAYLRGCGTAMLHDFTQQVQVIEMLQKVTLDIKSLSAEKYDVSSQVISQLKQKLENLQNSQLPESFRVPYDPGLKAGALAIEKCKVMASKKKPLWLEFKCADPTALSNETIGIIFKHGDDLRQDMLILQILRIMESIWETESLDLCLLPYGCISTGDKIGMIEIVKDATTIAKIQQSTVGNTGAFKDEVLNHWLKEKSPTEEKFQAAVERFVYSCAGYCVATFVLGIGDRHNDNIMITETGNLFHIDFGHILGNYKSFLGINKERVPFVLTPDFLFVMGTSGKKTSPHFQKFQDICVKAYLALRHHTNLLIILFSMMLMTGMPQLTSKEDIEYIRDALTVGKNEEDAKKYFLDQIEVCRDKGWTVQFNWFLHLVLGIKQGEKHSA
Procedure: as §1, §2, §3, §4, §5, §6, §7, §8, §9, §10, §11, §12, §13, §14

p110delta = p110delta (Homo sapiens, UniProt O00329); experiment: PI3K kinase assay (ADP-Glo), p110delta; conditions: final ATP 25 μM
Sequence of p110delta (O00329 whole entry): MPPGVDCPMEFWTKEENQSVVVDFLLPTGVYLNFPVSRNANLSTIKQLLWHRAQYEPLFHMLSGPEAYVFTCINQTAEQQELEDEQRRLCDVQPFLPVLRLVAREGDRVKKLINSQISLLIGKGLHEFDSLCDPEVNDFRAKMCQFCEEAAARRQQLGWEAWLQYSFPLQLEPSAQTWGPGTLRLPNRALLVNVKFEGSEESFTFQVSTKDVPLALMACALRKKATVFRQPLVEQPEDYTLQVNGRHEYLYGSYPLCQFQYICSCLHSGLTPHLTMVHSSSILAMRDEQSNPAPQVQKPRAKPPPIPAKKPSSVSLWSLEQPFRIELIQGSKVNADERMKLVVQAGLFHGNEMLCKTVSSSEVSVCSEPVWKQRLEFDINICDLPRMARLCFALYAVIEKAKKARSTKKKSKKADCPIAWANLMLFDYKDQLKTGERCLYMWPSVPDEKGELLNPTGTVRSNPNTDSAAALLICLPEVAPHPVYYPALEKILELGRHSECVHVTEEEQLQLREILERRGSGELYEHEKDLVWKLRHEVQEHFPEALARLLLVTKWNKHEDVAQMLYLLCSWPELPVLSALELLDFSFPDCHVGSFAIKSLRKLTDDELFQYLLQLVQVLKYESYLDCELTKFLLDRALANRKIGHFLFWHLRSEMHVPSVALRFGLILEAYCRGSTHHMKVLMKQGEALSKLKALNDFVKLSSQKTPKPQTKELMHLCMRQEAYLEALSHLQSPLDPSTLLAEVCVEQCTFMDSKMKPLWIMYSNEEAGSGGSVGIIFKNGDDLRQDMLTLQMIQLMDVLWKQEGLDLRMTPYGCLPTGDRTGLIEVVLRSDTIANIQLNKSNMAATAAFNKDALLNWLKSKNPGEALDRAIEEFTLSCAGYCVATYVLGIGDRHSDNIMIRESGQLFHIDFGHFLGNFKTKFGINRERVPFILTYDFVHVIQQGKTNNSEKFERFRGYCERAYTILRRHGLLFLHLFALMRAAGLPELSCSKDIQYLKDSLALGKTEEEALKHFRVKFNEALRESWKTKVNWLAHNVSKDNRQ
Sequence of p110delta (P27986 whole entry partner): as the sequence (P27986 whole entry partner) above
Procedure: as §1, §2, §3, §4, §5, §6, §7, §8, §9, §10, §11, §12, §13, §14

[1] = Exp. 1, read-out: IC50 p110alpha Exp. 1
[2] = Exp. 2, read-out: IC50 p110alpha Exp. 2
[3] = Exp. 1, read-out: IC50 p110beta Exp. 1
[4] = Exp. 2, read-out: IC50 p110beta Exp. 2
[5] = Exp. 1, read-out: IC50 p120gamma Exp. 1
[6] = Exp. 2, read-out: IC50 p120gamma Exp. 2
[7] = Exp. 1, read-out: IC50 p110delta Exp. 1
[8] = Exp. 2, read-out: IC50 p110delta Exp. 2

SMILES	Ki (PI3Kα)	IC50 (p110alpha; [1])	IC50 (p110alpha; [2])	IC50 (p110beta; [3])	IC50 (p110beta; [4])	IC50 (p120gamma; [5])	IC50 (p120gamma; [6])	IC50 (p110delta; [7])	IC50 (p110delta; [8])
Nc1ccc(-c2cccc3c(=O)cc(N4CCOCC4)oc23)cc1 [PI 828, reference compound]		351 nM	349 nM	244 nM	242 nM	1920 nM	2140 nM	308 nM	203 nM
COc1ncc(-c2cnc3ccc(-c4cncc(NS(=O)(=O)c5ccccc5)c4)cn23)cn1 [TK2-67p3-36 (6b), N-(5-(3-(2-methoxypyrimidin-5-yl)imidazo[1,2-a]pyridin-6-yl)pyridin-3-yl)benzenesulfonamide]		11.7 nM	12.7 nM	167 nM	187 nM	14.9 nM	27.7 nM	33.5 nM	27.7 nM
CN(C)c1ncc(-c2cnc3ccc(-c4cncc(NS(=O)(=O)c5ccccc5)c4)cn23)cn1 [TK2-71pZD2-86 (6a), N-(5-(3-(2-(dimethylamino)pyrimidin-5-yl)imidazo[1,2-a]pyridin-6-yl)pyridin-3-yl)benzenesulfonamide]		20.9 nM	33.7 nM	190 nM	184 nM	18.6 nM	34.2 nM	33.5 nM	34.2 nM
O=S(=O)(Nc1cncc(-c2ccc3ncc(-c4cnc5ccnn5c4)n3c2)c1)c1ccccc1 [TK2-130p3-37 (6c), N-(5-(3-(pyrazolo[1,5-a]pyrimidin-6-yl)imidazo[1,2-a]pyridin-6-yl)pyridin-3-yl)benzenesulfonamide]		51 nM	61.3 nM	419 nM	479 nM	50.2 nM	31 nM	34.1 nM	31 nM
CN(C)c1ncc(-c2cnc3ccc(-c4cncc(NS(=O)(=O)c5ccccc5)c4)cn23)cn1 [drawing 16]	244 nM								
COc1ncc(-c2cnc3ccc(-c4cncc(NS(=O)(=O)c5ccccc5)c4)cn23)cn1 [drawing 17]	70 nM								
O=S(=O)(Nc1cncc(-c2ccc3ncc(-c4cnc5ccnn5c4)n3c2)c1)c1ccccc1 [drawing 18]	329 nM								

Continued, values first:

Ki (PI3Kα)	IC50 (p110alpha; [1])	IC50 (p110alpha; [2])	IC50 (p110beta; [3])	IC50 (p110beta; [4])	IC50 (p120gamma; [5])	IC50 (p120gamma; [6])	IC50 (p110delta; [7])	IC50 (p110delta; [8])	SMILES
43 nM									CCc1nc(-c2cnc3ccc(-c4cncc(NS(=O)(=O)c5ccccc5)c4)cn23)no1
	8.9 nM	11.5 nM	27.6 nM	44.9 nM	7.5 nM	8.5 nM	10.8 nM	8.5 nM	O=S(=O)(Nc1cncc(-c2ccc3ncc(-c4ncccn4)n3c2)c1)c1ccccc1 [TK2-94p3-47 (6d), N-(5-(3-(pyrimidin-2-yl)imidazo[1,2-a]pyridin-6-yl)pyridin-3-yl)benzenesulfonamide]
100 nM									O=S(=O)(Nc1cncc(-c2ccc3ncc(-c4ncccn4)n3c2)c1)c1ccccc1 [drawing 19]
